The source of these data is ChEMBL document CHEMBL1143110, “Targeting ACE and ECE with dual acting inhibitors” (Bioorg Med Chem Lett, 2008).

Test [1] concerns the target Angiotensin-converting enzyme (Homo sapiens, UniProt P12821). Description: Inhibition of ACE.
Test [2] is described as follows: Inhibition of ECE.
The next test has as its target Neprilysin (Homo sapiens, UniProt P08473). Description: Inhibition of NEP.

The IC50 is the midpoint of a concentration-inhibition curve. Low readings indicate higher potency, high ones lower potency. `CC(C)CN(C[C@H](O)C(=O)O)C(=O)N[C@@H](Cc1c[nH]c2ccccc12)C(=O)O`: the IC50 in test [1] worked out at 103 nM; in test [2], 16500 nM; at Neprilysin, 8 nM.
Regarding `O=C(O)[C@H](Cc1ccc2ccccc2c1)NC(=O)N(Cc1ccc2c(c1)Cc1ccccc1-2)C[C@H](O)C(=O)O`, the results for the concentration for half-maximal inhibition (IC50) (in test [1]; against Neprilysin) were 150 nM and 19000 nM, respectively.
Take `CC(C)CN(CCP(=O)(O)O)C(=O)N[C@@H](Cc1ccc2ccccc2c1)C(=O)O`: it took 6 nM to reach half-maximal inhibition against Neprilysin (IC50).
Compound `CCC(CC)CN(C[C@H](O)C(=O)O)C(=O)N[C@@H](Cc1ccc2ccccc2c1)C(=O)O` came in with an IC50 at Neprilysin of 36 nM. This IC50 lies about 6-fold higher than the previous one.
For the compound `O=C1c2ccccc2-c2ccc(CN(C[C@H](O)C(=O)O)C(=O)N[C@@H](Cc3ccc4ccccc4c3)C(=O)O)cc21`, half-maximal inhibition in test [1] (IC50) was put at 39 nM.
For the compound `CC(C)CN(C[C@H](O)C(=O)O)C(=O)N[C@@H](Cc1ccc(O)c(O)c1)C(=O)O`, the 50% inhibitory concentration (IC50) in test [1] came to 23 nM; at Neprilysin, 19 nM.
In the same order, the values of `CC(C)CN(C[C@H](O)C(=O)O)C(=O)N[C@@H](Cc1ccc(O)cc1)C(=O)O` are 60 nM and 6 nM.
For the compound `O=C(O)[C@H](Cc1ccc2ccccc2c1)NC(=O)N(CCN1C(=O)c2cccc3cccc(c23)C1=O)C[C@H](O)C(=O)O`, the 50% inhibitory concentration (IC50) in test [1] was 1980 nM; in test [2], 600 nM; at Neprilysin, 650 nM.
In test [1], `O=C1c2ccccc2C(=O)c2cc(CN(C[C@H](O)C(=O)O)C(=O)N[C@@H](Cc3ccc4ccccc4c3)C(=O)O)ccc21` gave a concentration for half-maximal inhibition (IC50) of 40 nM.
In the case of `CC(C)(C)CN(C[C@H](O)C(=O)O)C(=O)N[C@@H](Cc1ccc2ccccc2c1)C(=O)O`, the 50% inhibitory concentration (IC50) in test [1] is 191 nM; against Neprilysin, 5 nM.
For the compound `CC(C)CN(C[C@H](O)C(=O)O)C(=O)N[C@@H](Cc1ccc(-c2ccccc2)cc1)C(=O)O`, the figures for the half-inhibitory concentration (IC50) (in test [1]; in test [2]; against Neprilysin) were 35 nM, 3490 nM and 10 nM, respectively.
Regarding `CC(C)CN(C[C@H](O)C(=O)O)C(=O)N[C@@H](Cc1cccc2ccccc12)C(=O)O`, the concentration for half-maximal inhibition (IC50) in test [1] was determined as 110 nM; at Neprilysin it was 9 nM.
In the same order, the values of `CC(C)CN(CP(=O)(O)O)C(=O)N[C@@H](Cc1ccc2ccccc2c1)C(=O)O` are 29 nM and 2 nM.
Regarding `CC(C)CN(C[C@H](O)C(=O)O)C(=O)N[C@@H](Cc1ccc2ccccc2c1)C(=O)O`, the IC50 in test [1] amounted to 52 nM; in test [2], 2500 nM; at Neprilysin, 4 nM.
